Assay results: a compilation of properties of binary mixtures (doi:10.1021/je300093r)

Assay: xn = mol fraction of the nth substance listed
Details: 101 kPa

In the case of `CCCC[n+]1ccccc1.O=S(=O)([N-]S(=O)(=O)C(F)(F)F)C(F)(F)F` + CCCC[n+]1ccccc1.F[B-](F)(F)F, the viscosity (303.15 K, x1 = 0.0442) was 115.3 mPa·s, the viscosity (303.15 K, x1 = 0.1119) was 105 mPa·s and the viscosity (303.15 K, x1 = 0.3217) was 82.6 mPa·s. For the same molecule, the viscosity (303.15 K, x1 = 0.4327) was 75.7 mPa·s, the viscosity (303.15 K, x1 = 0.5429) was 70.2 mPa·s and the viscosity (303.15 K, x1 = 0.6523) was 63.1 mPa·s. It also gave a viscosity (303.15 K, x1 = 0.8822) of 54.1 mPa·s, a viscosity (303.15 K, x1 = 0.9467) of 52 mPa·s and a viscosity (303.15 K, x1 = 1) of 49.4 mPa·s. For the same molecule, the viscosity (313.15 K, x1 = 0.0442) was 70.5 mPa·s, the viscosity (313.15 K, x1 = 0.1119) was 66.2 mPa·s and the viscosity (313.15 K, x1 = 0.2162) was 57.6 mPa·s. For the same molecule, the viscosity (313.15 K, x1 = 0.3217) was 53.1 mPa·s, the viscosity (313.15 K, x1 = 0.7643) was 39.1 mPa·s and the viscosity (313.15 K, x1 = 0.9467) was 35 mPa·s. It also gave a viscosity (313.15 K, x1 = 1) of 33.8 mPa·s, a viscosity (323.15 K, x1 = 0.0442) of 46.1 mPa·s and a viscosity (323.15 K, x1 = 0.1119) of 43.8 mPa·s. The viscosity (323.15 K, x1 = 0.2162) was 38.6 mPa·s, the viscosity (323.15 K, x1 = 0.3217) was 35.7 mPa·s and the viscosity (323.15 K, x1 = 0.4327) was 33.3 mPa·s. The viscosity (323.15 K, x1 = 0.5429) was 31.8 mPa·s, the viscosity (323.15 K, x1 = 0.6523) was 29.8 mPa·s and the viscosity (323.15 K, x1 = 0.7643) was 27.7 mPa·s. For the same molecule, the viscosity (323.15 K, x1 = 0.8822) was 25.8 mPa·s, the viscosity (323.15 K, x1 = 0.9467) was 25 mPa·s and the viscosity (333.15 K, x1 = 0.0442) was 31.9 mPa·s. For the same molecule, the viscosity (333.15 K, x1 = 0.1119) was 30.4 mPa·s, the viscosity (333.15 K, x1 = 0.2162) was 27.3 mPa·s and the viscosity (333.15 K, x1 = 0.3217) was 25.5 mPa·s. The viscosity (333.15 K, x1 = 0.4327) was 23.8 mPa·s, the viscosity (333.15 K, x1 = 0.5429) was 23.1 mPa·s and the viscosity (333.15 K, x1 = 0.7643) was 20.5 mPa·s. The viscosity (333.15 K, x1 = 0.8822) was 19.2 mPa·s, the viscosity (333.15 K, x1 = 0.9467) was 18.5 mPa·s and the viscosity (333.15 K, x1 = 1) was 17.9 mPa·s. The viscosity (343.15 K, x1 = 0.0442) was 22.9 mPa·s, the viscosity (343.15 K, x1 = 0.3217) was 18.7 mPa·s and the viscosity (343.15 K, x1 = 0.4327) was 17.6 mPa·s. For the same molecule, the viscosity (343.15 K, x1 = 0.5429) was 17.3 mPa·s, the viscosity (343.15 K, x1 = 0.6523) was 16.4 mPa·s and the viscosity (343.15 K, x1 = 0.7643) was 15.5 mPa·s. It also gave a viscosity (343.15 K, x1 = 0.9467) of 14.1 mPa·s, a viscosity (343.15 K, x1 = 1) of 13.7 mPa·s and a viscosity (353.15 K, x1 = 0.0442) of 17.1 mPa·s. It also gave a viscosity (353.15 K, x1 = 0.2162) of 15.2 mPa·s, a viscosity (353.15 K, x1 = 0.3217) of 14.4 mPa·s and a viscosity (353.15 K, x1 = 0.6523) of 12.8 mPa·s. For the same molecule, the viscosity (353.15 K, x1 = 0.7643) was 12.1 mPa·s, the viscosity (353.15 K, x1 = 0.8822) was 11.5 mPa·s and the viscosity (353.15 K, x1 = 0.9467) was 11.1 mPa·s.
`CCCC[n+]1ccccc1.F[B-](F)(F)F` + CCCC[n+]1ccccc1.O=S(=O)([N-]S(=O)(=O)C(F)(F)F)C(F)(F)F gave a viscosity (313.15 K, x2 = 0) of 74.8 mPa·s, a viscosity (323.15 K, x2 = 0) of 48.1 mPa·s and a viscosity (333.15 K, x2 = 0) of 33 mPa·s. For the same molecule, the viscosity (343.15 K, x2 = 0) was 23.8 mPa·s.
